From paper PMC8304761, “Development of an Androgen Receptor Inhibitor Targeting the N-Terminal Domain of Androgen Receptor for Treatment of Castration Resistant Prostate Cancer” (Cancers, 2021)
pIC50: −log10 of the molar value.

How the values were obtained:
[1] = test system: prostate specific antigen (PSA); test: Secreted PSA levels in LNCaP cells; format: cell-based; settings: Homo sapiens; LNCaP cells; read-out: IC50, secreted PSA levels
Source text: Next, we tested the activity of VPC-220010 against full length AR using an AR-eGFP transcription assay in LNCaP cells. […] To further validate VPC-220010 as an AR inhibitor, we evaluated its ability to reduce the production of endogenous prostate specific antigen (PSA) in PCa cell lines. PSA is an AR-regulated serine protease and is widely used as a biomarker for PCa.

AR-NTD (Gal4DBD-AR1-558) = target: T1, AR-NTD (Gal4DBD-AR1-558) (Homo sapiens, UniProt P10275); test: NTD-transactivation assay (mammalian two hybrid, forskolin) in LNCaP cells; format: cell-based; settings: varying concentrations; Figure 3
T1 construct: expressed in transfected cells; host or cells: LNCaP
T1 sequence (P10275 1-558): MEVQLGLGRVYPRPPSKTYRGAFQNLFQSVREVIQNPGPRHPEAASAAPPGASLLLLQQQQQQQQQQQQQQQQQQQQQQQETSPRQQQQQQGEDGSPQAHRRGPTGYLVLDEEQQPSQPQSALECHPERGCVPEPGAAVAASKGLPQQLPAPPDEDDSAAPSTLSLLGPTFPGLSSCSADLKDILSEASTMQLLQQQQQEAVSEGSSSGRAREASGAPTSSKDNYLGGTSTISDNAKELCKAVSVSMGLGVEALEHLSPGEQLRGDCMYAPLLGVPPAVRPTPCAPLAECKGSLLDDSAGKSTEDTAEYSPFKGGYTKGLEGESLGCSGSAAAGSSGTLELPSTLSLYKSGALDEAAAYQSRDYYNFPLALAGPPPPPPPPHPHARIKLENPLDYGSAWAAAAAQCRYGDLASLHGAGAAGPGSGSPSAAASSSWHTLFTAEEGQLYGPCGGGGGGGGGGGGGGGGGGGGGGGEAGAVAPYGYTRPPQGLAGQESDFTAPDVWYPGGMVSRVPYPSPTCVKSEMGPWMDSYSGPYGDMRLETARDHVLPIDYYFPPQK
Experimental: Following 48 h incubation, cells were then treated with compounds at various concentrations and 0.1 nm R1881 (in 100% ethanol) for 24 h for AR assays. GR, ER, and PR activation was stimulated with 1 nm dexamethasone, estradiol, or progesterone, respectively. […] Cell lysis was carried out with 60 μL of 1× passive lysis buffer/well (Promega Madison, WI, USA). 20 μL of cell lysate from each well were mixed with 50 μL of luciferase assay reagent (Promega Madison, WI, USA), and luminescence was recorded on a TECAN M200pro plate reader.
To confirm the proposed mechanism of VPC-220010 we tested the effect of this compound on NTD-mediated transactivation. […] When incubated with forskolin, this system induces transcription activity through phosphorylation of the AR-NTD [10].

[2] = test system: ARV7-regulated genes UBE2C, AKT1 and CDC20; test: qPCR of ARV7-regulated genes in 22Rv1 cells; format: cell-based, human; settings: Figure 5B
Experimental: Total RNA was extracted from cells with Trizol and the Qiagen RNeasy RNA Extraction Kit (Qiagen Germantown, MD, USA). Approximately 8 × 10^6 cells were collected per sample, with three biological replicates for each treatment. The concentrations and the qualities of the RNA samples were checked by Nanodrop. cDNA was prepared busing MMLV-Reverse Transcriptase (Thermo Fisher Scientific, Waltham, MA, USA). qRT-PCR was performed with LightCycler® 480 SYBR Green I Master (Roche, Basel, Switzerland).

LNCaP cells = test: Proliferation assay (PrestoBlue), LNCaP; format: cell-based; settings: Homo sapiens, 72 h, R1881, Figure 2C, read-out: IC50, viability of LNCaP cells
Experimental: (§1) Proliferation assay: LNCaP, 22Rv1 and PC3 cells were plated at 3000 cells per well in RPMI1640 containing 5% CSS in a 96-well plate, treated with 0.1 nm R1881 (a synthetic androgen) and test compounds (0–25 μM) for 72 h. Cell proliferation was determined using the PrestoBlue^TM cell proliferation assay following incubation with the compound […] over 72 h. In brief, 30 μL of the PrestoBlue^TM reagent was added to cells in each well of the 96-well plate containing 200 μL of media and incubated for 60 min at 37 °C in 5% CO2. The production of […]. Fluorescence measurement was read on a TECAN F200.
(§2) We then evaluated the effect of VPC-220010 on the proliferation of androgen-dependent LNCaP and ARV7-dependent 22Rv1 cells.

22Rv1 cells = test: Proliferation assay (PrestoBlue), 22Rv1; format: cell-based; settings: Homo sapiens, 72 h, Figure 2D, read-out: IC50, viability of 22Rv1 cells
Experimental: as §1, §2

PSA = test system: PSA; design: method as in doi:10.1200/JCO.2019.37.7_suppl.257; settings: patients, metastatic CRPC, low levels of circulating EPI-506; cited from earlier work

Row | SMILES | pIC50 [1] | AR-NTD activity induced by forskolin (AR-NTD (Gal4DBD-AR1-558)) | expression of ARV7-regulated genes UBE2C, AKT1 and CDC20 (qPCR) [2] | pIC50 (LNCaP cells) | pIC50 (22Rv1 cells) | decrease in PSA (PSA)
1 | CC(C)(c1ccc(OCC(O)CO)cc1)c1ccc(OCC(O)CCl)cc1 (stereo not drawn) [EPI-001, reference compound] | < 4.60 | inhibited | inhibited | < 4.60 | < 4.30 | –
2 | CC(=O)OC[C@H](COc1ccc(C(C)(C)c2ccc(OC[C@@H](CCl)OC(C)=O)cc2)cc1)OC(C)=O [EPI-506] | – | – | – | – | – | 4–29%
